# Marks after values point to notes of the source that are not given here.
# Columns and labels:
# [1] = Alcohol concentration in mouse serum; assay type: in vivo, mice; settings: EK100 1, 5, 10 mg/kg/day vs EtOH group; p<0.05; FIG. 15
# Method: C-3. At the end of week 4, the mice were fasted for 8 hours. Then, mice blood was collected by orbital sinus blood collection with capillary blood collection needles (for all of the 8 mice from each group). The mice blood was left standing for 1 hour and then centrifuged by a refrigerated microcentrifuge (Kubota corporation, model number: 3700) to separate the supernatant serum. The supernatant serum was stored at −80° C. for the following analysis.
# Mouse serum samples of each group provided in [Preparation Examples] C-2 were well mixed with ADH and NAD^+ reagents in a commercial kit (Dade-Berhring company, England, Emit® II Plus Ethyl alcohol assay), and then the alcohol concentrations in the above serum samples were measured by an automatic biochemistry analyzer (Olympus company, Japan, AU2700) at 340 nm wavelength.
# male C57BL/6 mice [2] = test: Amount of glutathione (GSH) in liver homogenate; settings: for Amount of GSH: liver homogenate, alcoholic liquid diet, 4 weeks
# catalase (CAT) = test: Activity of CAT in mouse liver; assay type: in vivo, mice; settings: for Activity of CAT: liver homogenate, alcoholic liquid diet, 4 weeks
# [3] = tested on: PPAR-α, RXR-α, CPT1, UCP2; test: Expressions of fatty acid β-oxidation-promoting genes in liver (real-time PCR); assay type: in vivo, mice; settings: EK100 1, 5, 10 mg/kg/day vs EtOH group, p<0.05, FIG. 5
# Method: (§1) C-4 was put into a 0.8 ml RNAlater containing an RNA stabilizer (Qiagen company, United States), and then the commercial kit (E.Z.N.A™ Tissue RNA kit, purchased from Omega Bio-Tek company, United States) was used to extract the mRNA therein. After that, the mRNA sample obtained therefrom was reverse transcribed to provide cDNA, and then specific primers (as shown in Table 2) were used to conduct real-time polymerase chain reaction (real-time PCR) of the cDNA to observe the expression of each gene in the mouse liver, wherein the operation steps of the real-time polymerase chain reaction were as follows: (i) 2 μl of cDNA (50 ng/μl), 5 μl of SYBR Green (Molecular Probes company, United States, Applied Biosystems/Fast SYBR® Green Master Mix), 2 μl of RNase-free water, 1 μl of forward primer, and 1 μl of reverse primer were well mixed and then centrifuged; (ii) the above sample was put into a real-time polymerase chain reaction system (Applied Biosystems/StepOne Real time PCR system) to detect the expression of each gene, wherein the expression of GAPDH was used as the positive control.
# Therefore, the expressions of the above genes in the mouse liver of each group were compared by the analysis method of [Preparation Examples]
# male C57BL/6 mice [4] = test: Amounts of TAG and TC in liver; assay type: in vivo; settings: EK100 1, 5, 10 mg/kg/day vs EtOH group; p<0.05; FIG. 2B
# male C57BL/6 mice [5] = test: Appearance and H&E staining of mouse liver; assay type: in vivo; settings: EK100 1, 5, 10 mg/kg/day vs EtOH group
# Method: C-4. After “C-3” was completed, the mice were sacrificed. The weights of the mice hearts, livers, kidneys, spleens, and abdominal and epididymal fat pads were measured and recorded; the mice livers were washed with sterilized saline, and then the liver appearances were recorded by a camera. The collected organs and feces were stored at −80° C. for the following analysis (recording, sample collection and storage were conducted for all of the 8 mice from each group).
# The photographs of the mouse liver appearance of each group recorded in [Preparation Examples]
# Additionally, the photographs of stained mouse liver of each group recorded in [Preparation Examples]
# IL-1β = test: Concentration of IL-1β in liver (ELISA); assay type: in vivo, mice; settings: EK100 1, 5, 10 mg/kg/day vs EtOH group; p<0.05; FIG. 9B
# Source text: D-3 were taken and diluted with Calibrator Diluent RD 5-17 to ⅓ of the original concentration respectively, and then a Quantikine® Rat TNF-α or a Quantikine® Rat IL-1β commercial kit (purchased from R&D Systems company, United States) was used for the Enzyme-linked immune-sorption assay (ELISA) to measure the amounts of tumor necrosis factor-alpha (TNF-α) and interleukin-1β (IL-1β) therein. […]
# male C57BL/6 mice [6] = test: TBARS value of liver homogenate; settings: for TBARS value: liver homogenate, alcoholic liquid diet, 4 weeks
# male C57BL/6 mice [7] = test: Amounts of TAG, TC and bile acid in feces; assay type: in vivo; settings: EK100 1, 5, 10 mg/kg/day vs EtOH group, feces of end of week 3, p<0.05
# ADH, ALDH, CYP2E1, CAT = test: Gene expressions of alcohol metabolism-related enzymes in liver (real-time PCR); assay type: in vivo, mice; settings: EK100 1, 5, 10 mg/kg/day vs EtOH group; p<0.05; FIG. 12
# Method: as §1
# The expressions of alcohol metabolism-related enzymes (i.e., ADH, ALDH, CYP2E1, and CAT) in mouse liver of each group were compared by the analysis method of [Preparation Examples]
# [8] = tested on: alanine aminotransferase (ALT); test: Activity of ALT in serum; assay type: in vivo, mice; settings: EK100 5 and 10 mg/kg/day (EK100_5X, EK100_10X) vs EtOH group; p<0.05; FIG. 8
# Source text: It has been known that both aspartate aminotransferase (AST) and alanine aminotransferase (ALT) are amino acid metabolic enzymes, which are widely present in the heart, liver, skeletal muscle, kidney and brain. When cells in organs are injured, AST and ALT will be released into the blood. Therefore, the activities of AST and ALT can be used as the injury markers of the above organs to detect organ injuries, wherein the higher activities of AST and ALT represent that organ injuries are more serious. For example, there is much more ALT in the liver. A higher activity of ALT in the liver would indicate a more serious injury.
# To understand the effects of alcohol consumption and ergostatrien-3β-ol intake on the injury conditions of mice organs, mouse serum samples of each group provided in [Preparation Examples] C-2 (200 μl per group) were placed into automatic dry-biochemistry analyzer (Arkray, Inc., Japan, Spotechem™ EZ, SP-4430) with AST/ALT expert analytic test paper (Arkray, Inc., Japan, Spotechem™ II) to detect the activities of AST and ALT.
# [9] = EK100 1, 5, 10 mg/kg/day vs EtOH group, p<0.05
compound,measurement,setting,value
CC(C)[C@@H](C)/C=C/[C@@H](C)[C@H]1CC[C@H]2C3=CCC4C[C@@H](O)CC[C@]4(C)C3=CC[C@]12C (stereo partly drawn) [EK100],Alcohol concentration in serum compared to EtOH,[1],significantly decreased
same,Amount of GSH in liver compared to EtOH,male C57BL/6 mice [2]; [9],significantly increased
same,Amount of GSH,male C57BL/6 mice [2]; EK100_1X: 1 mg/kg/day gavage,49.08 ± 4.78^b nmol/mg protein
same,Amount of GSH,male C57BL/6 mice [2]; EK100_5X: 5 mg/kg/day gavage,71.14 ± 4.17^a nmol/mg protein
same,Amount of GSH,male C57BL/6 mice [2]; EK100_10X: 10 mg/kg/day gavage,77.21 ± 2.95^a nmol/mg protein
same,Activity of CAT in liver compared to EtOH,catalase (CAT); [9],significantly increased
same,Activity of CAT,catalase (CAT); EK100_1X: 1 mg/kg/day gavage,175.80 ± 6.89^a unit/mg protein
same,Activity of CAT,catalase (CAT); EK100_5X: 5 mg/kg/day gavage,145.43 ± 5.77^b unit/mg protein
same,Activity of CAT,catalase (CAT); EK100_10X: 10 mg/kg/day gavage,137.16 ± 6.79^bc unit/mg protein
same,Expressions of fatty acid β-oxidation-promoting genes in liver compared to EtOH,[3],significantly increased
same,Amount of TAG in liver compared to EtOH,male C57BL/6 mice [4],significantly decreased
same,Amount of TC in liver compared to EtOH,male C57BL/6 mice [4],significantly decreased
same,Number of fat vacuoles in liver tissue compared to EtOH,"male C57BL/6 mice [5]; H&E staining, FIGS. 7A-7E",markedly decreased
same,Whitening phenomenon of liver compared to EtOH,"male C57BL/6 mice [5]; liver appearance, FIGS. 6A-6E",decreased
same,Concentration of IL-1β in liver compared to EtOH,IL-1β,significantly decreased
same,TBARS value of liver compared to EtOH,male C57BL/6 mice [6]; [9],significantly decreased
same,TBARS value,male C57BL/6 mice [6]; EK100_1X: 1 mg/kg/day gavage,0.56 ± 0.04^b nmol malondialdehyde/mg protein
same,TBARS value,male C57BL/6 mice [6]; EK100_5X: 5 mg/kg/day gavage,0.54 ± 0.05^b nmol malondialdehyde/mg protein
same,TBARS value,male C57BL/6 mice [6]; EK100_10X: 10 mg/kg/day gavage,0.46 ± 0.04^b nmol malondialdehyde/mg protein
same,Amount of TAG in feces compared to EtOH,male C57BL/6 mice [7]; FIG. 2C,significantly increased
same,Amount of TC in feces compared to EtOH,male C57BL/6 mice [7]; FIG. 2C,significantly increased
same,Amount of bile acid in feces compared to EtOH,male C57BL/6 mice [7]; FIG. 3,significantly increased
same,Gene expression of ADH in liver compared to EtOH,"ADH, ALDH, CYP2E1, CAT",significantly increased
same,Gene expression of ALDH in liver compared to EtOH,"ADH, ALDH, CYP2E1, CAT",significantly increased
same,Gene expression of CAT in liver compared to EtOH,"ADH, ALDH, CYP2E1, CAT",significantly increased
same,Gene expression of CYP2E1 in liver compared to EtOH,"ADH, ALDH, CYP2E1, CAT",significantly decreased
same,Activity of ALT in serum compared to EtOH,[8],significantly decreased

# — US20170216315A1 (priority 2016, published 2017)
